From the NIST ThermoML archive (doi:10.1016/j.jct.2013.09.039)

Assay: xn = mol fraction of the nth substance listed
Settings: Liquid, Vibrating tube method

Cc1ccc(C)cc1 [1,4-dimethylbenzene] + CCCCCCCC
mass density [kg/m3]
Settings	100 kPa	5000 kPa	10000 kPa	20000 kPa	30000 kPa	40000 kPa
298.15 K, x2 = 0.0509	–	–	–	860.3	866.3	872.5
298.15 K, x2 = 0.0993	–	–	–	850.7	857.1	863.1
298.15 K, x2 = 0.1981	–	–	–	832.4	838.9	844.9
298.15 K, x2 = 0.2961	–	–	–	815	821.5	827.5
298.15 K, x2 = 0.3989	–	–	–	798	804.5	810.7
298.15 K, x2 = 0.4891	–	–	–	784	790.7	796.8
298.15 K, x2 = 0.5473	–	–	–	775.2	781.9	787.9
298.15 K, x2 = 0.6039	–	–	–	766.8	773.3	779.4
298.15 K, x2 = 0.8031	–	–	–	739.3	746.2	752.5
298.15 K, x2 = 0.8963	–	–	–	727.3	734.1	740.5
298.15 K, x2 = 0.946	–	–	–	720.7	727.5	733.8
308.15 K, x2 = 0.0509	837.4	841.4	845.2	852.1	858.9	865
308.15 K, x2 = 0.0993	828	832	835.8	842.9	849.6	855.8
308.15 K, x2 = 0.1981	809.3	813.5	817.5	824.5	831.4	837.7
308.15 K, x2 = 0.2961	791.6	796	800	807.3	814.2	820.5
308.15 K, x2 = 0.3989	774.4	778.8	783	790.3	797.2	803.7
308.15 K, x2 = 0.4891	760.3	764.7	768.9	776.4	783.4	789.7
308.15 K, x2 = 0.5473	752.4	755.9	760.1	767.7	774.6	781.2
308.15 K, x2 = 0.6039	743.9	747.2	751.6	759.3	766.3	772.7
308.15 K, x2 = 0.8031	716.1	719.9	724.2	732.1	739.2	745.9
308.15 K, x2 = 0.8963	704.2	708.1	712.4	720.1	727.4	734
308.15 K, x2 = 0.946	697.5	701.3	705.5	713.4	720.7	727.3
